The source of these data is publication PMC11904948, “Peptide‐Drug Conjugate for Therapeutic Reprogramming of Tumor‐Associated Macrophages in Breast Cancer” (Advanced Science, 2025).

The assay relates to YAP. Description: YAP immunofluorescence in BMDM. The assay is classed as cell-based, mouse. The settings on record: day 5 BMDM, 10 µM 4 h, washed, confocal microscopy 3 h later. The source says: We speculated that the observed in vivo effect of MACTIDE‐V could be mediated by the modulation of macrophage phenotype elicited by Verteporfin, a drug that inhibits the co‐transcription factor Yes Associated Protein (YAP), and prevents the anti‐inflammatory shift in macrophages.^[ [26] ^] We therefore analyzed the effect of MACTIDE‐V on YAP localization and phenotypic changes in mouse bone marrow‐derived macrophages (BMDM) in vitro. We first treated BMDM with MACTIDE‐V, MACTIDE, or CtrlPep‐V and evaluated changes in YAP localization 3 h later using confocal microscopy. […] These observations are consistent with the reported effect of Verteporfin sequestering YAP in the cytoplasm.^[ [27], [28] ^]
Figure 6 MACTIDE‐V promotes a YAP‐ mediated anti‐ tumoral switch in bone marrow‐derived macrophages. Day 5 BMDM were incubated for 4 h with 10 µM conjugates, washed, and followed‐up in media. A) YAP Immunofluorescence (shown in red) was analyzed 3 h after treatment and B) phagocytosis of fluorescent E. coli particles at 48 h follow‐up. C) Flow cytometry on BMDM 48 h after treatment. Left panel, GeoMean of MHC II, CD206, CD80, and PD‐L1 in Balb/c BMDM. Median ± interquartile range. […] D) Heatmap of the mRNA expression of genes involved in the functional activation of BMDM, YAP signaling, and adhesion, measured by real‐time PCR 48 h after treatment in BALB/c BMDM. n = 3 independent experiments. […]

With “Vert‐Ahx‐AKPCGS‐OH [CtrlPep‐V, reference compound]”, the YAP localization entry is recorded as “uniformly spread throughout the cell”.
In the case of “Vert‐Ahx‐G(CTKSIPPIC)SPGAK‐OH (disulfide) [MACTIDE‐V]” it was “excluded YAP from the nucleus”.
